# Counter-ions that a name gives are not always drawn.
# Tests used:
# Assay type in all cases: physicochemical
# [1] = Solid stability evaluation (II/II), HPLC in triplicate
# Method: The chemical stability of 1:1 Compound II Citrate Salt (Form A) and 1:1 Compound II Tris Salt (Form B) was further evaluated at solid state, samples were stored under the ambient condition or 40° C./75% RH for 1 day and 3 days, respectively.
# [2] = Kinetic solubility test in water and bio-relevant media (SGF, FaSSIF, FeSSIF); conditions: for S: solubility: 37° C.; for Purity (%), area percentage of API: for reference only (suspensions); for FC: form change: residual solids by XRPD; for pH: supernatant; for Solubility in SGF, FaSSIF and FeSSIF compared with freeform: within 1 hour
# Method: Weigh 100 mg of sodium chloride and 50 mg of Triton X-100 into a 50-mL volumetric flask. Add appropriate volume of purified water and sonicate until all solids are completely dissolved. Add about 68 μL of 12 M HCl and sufficient purified water closely to the target volume and adjust to pH 1.8. Dilute to volume with purified water, mix well and check the pH with a pH meter.
# Weigh 170 mg of sodium phosphate monobasic, 21 mg of sodium hydroxide and 310 mg of sodium chloride, 110 mg of SIF powder into a 50-mL volumetric flask. Add appropriate volume of purified water and sonicate until all solids are completely dissolved. Add sufficient purified water closely to the target volume and adjust to pH 6.5. Dilute to volume with purified water, mix well and check the pH with a pH meter.
# Weigh 0.41 mL of glacial acetic acid, 202 mg of sodium hydroxide and 594 mg of sodium chloride, 560 mg of SIF powder into a 50-mL volumetric flask. Add appropriate volume of purified water to dissolve the solids. Then add sufficient purified water closely to the target volume and adjust to pH 5.0. Dilute to volume with purified water, mix well and check the pH with a pH meter.
# Kinetic solubility was evaluated in water and three bio-relevant media (SGF, FaSSIF and FeSSIF) for 1/4/24 hours. 3-4 mg of solids were suspended in 3 mL each medium (solid loading: 1 mg/mL, calculated using freeform) to get a suspension, followed by rolling (25 rpm) at 37° C. for 1/4/24 hours. At each time point, ˜1.0 mL of suspension was sampled out for centrifugation (12000 rpm, 2 min) and filtration through 0.45 μm PTFE membrane to obtain supernatant for HPLC and pH tests, the residual solids were analyzed by XRPD.
# Kinetic solubility was evaluated for 1:1 Compound II Citrate Salt (Form A), 1:1 Compound II Tris Salt (Form B), and freeform of Compound II in water and three bio-relevant media (SGF, FaSSIF and FeSSIF) for 1/4/24 hours. 3-4 mg of solids were suspended in 3 mL each medium (solid loading:
# 1 mg/mL, calculated using freeform) to get a suspension, followed by rolling (25 rpm) at 37° C. for 1/4/24 hours. At each time point, ˜1.0 mL of suspension was sampled out for centrifugation (12000 rpm, 2 min) and filtration through 0.45 μm PTFE membrane to obtain supernatant for HPLC and pH tests, the residual solids were analyzed by XRPD. […] The purity results were for reference only since the samples were all suspensions.
# [3] = VH-XRPD, dehydration of the hydrate
# Method: VH-XRPD and single crystal structure determination were performed for 1:1 Compound I Tris Salt (Form A) and it was identified as a monohydrate, which would dehydrate at the ≤30%RH condition.
# VH-XRPD was performed for a 1:1 Compound II tris salt (Form B) sample for further identification. […] Combining the characterization results, it is believe that 1:1 Compound II tris salt (Form B) is a hydrate, which would dehydrate below ≤10% RH.
# [4] = Ambient condition (open), 1 day
# [5] = Ambient condition (open), 3 days
structure (smiles),measurement,setting,value
"N#Cc1ccc(COc2cccc(C3=CCN(Cc4nc5ccc(C(=O)O)cc5n4C[C@@H]4CCO4)CC3)n2)c(F)c1 [Citrate salt Form A, (S)-2-((6-((4-cyano-2-fluorobenzyl)oxy)-3′,6′-dihydro-[2,4′-bipyridin]-1′(2′H)-yl)methyl)-1-(oxetan-2-ylmethyl)-1H-benzo[d]imidazole-6-carboxylic acid]",Ave. Purity (area %),"[1]; 40° C./75% RH (open), 1 day",97.8 area %
same,Ave. Purity (area %),"[1]; 40° C./75% RH (open), 3 days",97.9 area %
same,Ave. Purity (area %),[1]; [4],97.8 area %
same,Ave. Purity (area %),[1]; [5],97.8 area %
same,Ave. Purity (area %),[1]; Initial,97.9 area %
same,S: solubility,"[2]; FaSSIF, 1 hour",100 µg/mL
same,"Purity (%), area percentage of API","[2]; FaSSIF, 1 hour",94.86%
same,S: solubility,"[2]; FaSSIF, 4 hours",20 µg/mL
same,"Purity (%), area percentage of API","[2]; FaSSIF, 4 hours",76.06%
same,S: solubility,"[2]; FaSSIF, 24 hours",9 µg/mL
same,"Purity (%), area percentage of API","[2]; FaSSIF, 24 hours",61.96%
same,S: solubility,"[2]; FeSSIF, 1 hour",200 µg/mL
same,"Purity (%), area percentage of API","[2]; FeSSIF, 1 hour",98.94%
same,S: solubility,"[2]; FeSSIF, 4 hours",300 µg/mL
same,"Purity (%), area percentage of API","[2]; FeSSIF, 4 hours",95.25%
same,S: solubility,"[2]; FeSSIF, 24 hours",90 µg/mL
same,"Purity (%), area percentage of API","[2]; FeSSIF, 24 hours",79.88%
same,S: solubility,"[2]; H2O, 1 hour",20 µg/mL
same,"Purity (%), area percentage of API","[2]; H2O, 1 hour",100.00%
same,S: solubility,"[2]; H2O, 4 hours",20 µg/mL
same,"Purity (%), area percentage of API","[2]; H2O, 4 hours",91.26%
same,S: solubility,"[2]; H2O, 24 hours",50 µg/mL
same,"Purity (%), area percentage of API","[2]; H2O, 24 hours",86.05%
same,S: solubility,"[2]; SGF, 1 hour",500 µg/mL
same,"Purity (%), area percentage of API","[2]; SGF, 1 hour",96.79%
same,S: solubility,"[2]; SGF, 4 hours",80 µg/mL
same,"Purity (%), area percentage of API","[2]; SGF, 4 hours",91.83%
same,S: solubility,"[2]; SGF, 24 hours",60 µg/mL
same,"Purity (%), area percentage of API","[2]; SGF, 24 hours",90.59%
same,FC: form change,"[2]; FaSSIF, 1 hour",No
same,FC: form change,"[2]; FaSSIF, 4 hours",No
same,FC: form change,"[2]; FaSSIF, 24 hours",Yes
same,FC: form change,"[2]; FeSSIF, 1 hour",No
same,FC: form change,"[2]; FeSSIF, 24 hours",Yes
same,FC: form change,"[2]; H2O, 1 hour",No
same,FC: form change,"[2]; H2O, 4 hours",No
same,FC: form change,"[2]; H2O, 24 hours",No
same,FC: form change,"[2]; SGF, 1 hour",Yes
same,FC: form change,"[2]; SGF, 4 hours",Yes
same,FC: form change,"[2]; SGF, 24 hours",Yes
same,pH,"[2]; FaSSIF, 1 hour",6.3
same,pH,"[2]; FaSSIF, 4 hours",6.3
same,pH,"[2]; FaSSIF, 24 hours",6.0
same,pH,"[2]; FeSSIF, 1 hour",5.0
same,pH,"[2]; FeSSIF, 4 hours",5.0
same,pH,"[2]; FeSSIF, 24 hours",4.9
same,pH,"[2]; H2O, 1 hour",4.8
same,pH,"[2]; H2O, 4 hours",4.2
same,pH,"[2]; H2O, 24 hours",3.4
same,pH,"[2]; SGF, 1 hour",1.9
same,pH,"[2]; SGF, 4 hours",1.9
same,pH,"[2]; SGF, 24 hours",1.9
same,"Solubility in SGF, FaSSIF and FeSSIF compared with freeform",[2],higher than that of freeform
"N#Cc1ccc(COc2cccc(C3=CCN(Cc4nc5ccc(C(=O)O)cc5n4C[C@@H]4CCO4)CC3)n2)c(F)c1 [Tris salt Form B, (S)-2-((6-((4-cyano-2-fluorobenzyl)oxy)-3′,6′-dihydro-[2,4′-bipyridin]-1′(2′H)-yl)methyl)-1-(oxetan-2-ylmethyl)-1H-benzo[d]imidazole-6-carboxylic acid]",Relative humidity at which the hydrate would dehydrate,[3],≤ 10 % RH
same,Ave. Purity (area %),"[1]; 40° C./75% RH (open), 1 day",94.5 area %
same,Ave. Purity (area %),"[1]; 40° C./75% RH (open), 3 days",94.8 area %
same,Ave. Purity (area %),[1]; [4],94.4 area %
same,Ave. Purity (area %),[1]; [5],94.2 area %
same,Ave. Purity (area %),[1]; Initial,95.5 area %
same,S: solubility,"[2]; FaSSIF, 1 hour",70 µg/mL
same,"Purity (%), area percentage of API","[2]; FaSSIF, 1 hour",72.58%
same,S: solubility,"[2]; FaSSIF, 4 hours",50 µg/mL
same,"Purity (%), area percentage of API","[2]; FaSSIF, 4 hours",59.86%
same,S: solubility,"[2]; FaSSIF, 24 hours",100 µg/mL
same,"Purity (%), area percentage of API","[2]; FaSSIF, 24 hours",72.13%
same,S: solubility,"[2]; FeSSIF, 1 hour",200 µg/mL
same,"Purity (%), area percentage of API","[2]; FeSSIF, 1 hour",98.18%
same,S: solubility,"[2]; FeSSIF, 4 hours",300 µg/mL
same,"Purity (%), area percentage of API","[2]; FeSSIF, 4 hours",93.37%
same,S: solubility,"[2]; FeSSIF, 24 hours",300 µg/mL
same,"Purity (%), area percentage of API","[2]; FeSSIF, 24 hours",80.52%
same,S: solubility,"[2]; H2O, 1 hour",400 µg/mL
same,"Purity (%), area percentage of API","[2]; H2O, 1 hour",93.07%
same,S: solubility,"[2]; H2O, 4 hours",900 µg/mL
same,"Purity (%), area percentage of API","[2]; H2O, 4 hours",93.13%
same,S: solubility,"[2]; H2O, 24 hours",600 µg/mL
same,"Purity (%), area percentage of API","[2]; H2O, 24 hours",92.03%
same,"Solubility in H2O, comparison in words","[2]; H2O, compared with the other tested materials",better solubility
same,S: solubility,"[2]; SGF, 1 hour",600 µg/mL
same,"Purity (%), area percentage of API","[2]; SGF, 1 hour",93.44%
same,S: solubility,"[2]; SGF, 4 hours",200 µg/mL
same,"Purity (%), area percentage of API","[2]; SGF, 4 hours",84.69%
same,S: solubility,"[2]; SGF, 24 hours",200 µg/mL
same,"Purity (%), area percentage of API","[2]; SGF, 24 hours",82.04%
same,FC: form change,"[2]; FaSSIF, 4 hours",Yes
same,FC: form change,"[2]; FaSSIF, 24 hours",Yes
same,FC: form change,"[2]; FeSSIF, 1 hour",No
same,FC: form change,"[2]; FeSSIF, 4 hours",Yes
same,FC: form change,"[2]; FeSSIF, 24 hours",Yes
same,FC: form change,"[2]; H2O, 1 hour",No
same,FC: form change,"[2]; H2O, 4 hours",Yes
same,FC: form change,"[2]; H2O, 24 hours",Yes
same,FC: form change,"[2]; SGF, 1 hour",Yes
same,FC: form change,"[2]; SGF, 4 hours",Yes
same,FC: form change,"[2]; SGF, 24 hours",Yes
same,pH,"[2]; FaSSIF, 1 hour",6.6
same,pH,"[2]; FaSSIF, 4 hours",6.6
same,pH,"[2]; FaSSIF, 24 hours",6.5
same,pH,"[2]; FeSSIF, 1 hour",5.1
same,pH,"[2]; FeSSIF, 4 hours",5.1
same,pH,"[2]; FeSSIF, 24 hours",5.0
same,pH,"[2]; H2O, 1 hour",7.6
same,pH,"[2]; H2O, 4 hours",7.8
same,pH,"[2]; H2O, 24 hours",7.9
same,pH,"[2]; SGF, 1 hour",1.9
same,pH,"[2]; SGF, 4 hours",2.0
same,pH,"[2]; SGF, 24 hours",2.0
same,"Solubility in SGF, FaSSIF and FeSSIF compared with freeform",[2],higher than that of freeform
